This is an account of results in patent US20230103444A1 (The Regents of the University of Colorado, a Body Corporate, priority 2020, published 2023).

A value given as a limit tells only on which side of the number the result lay.

The target of this experiment is T1, cat-CHD1L ATPase (Homo sapiens, UniProt Q86WJ1).
T1 construct: inferred from Ni-NTA / imidazole purification; made in house; host or cells: E. coli Rosetta 2 (DE3) pLysS; constructs were a gift from Helena Berglund, Karolinska Institute
T1 sequence (Q86WJ1 16-611 limits assumed): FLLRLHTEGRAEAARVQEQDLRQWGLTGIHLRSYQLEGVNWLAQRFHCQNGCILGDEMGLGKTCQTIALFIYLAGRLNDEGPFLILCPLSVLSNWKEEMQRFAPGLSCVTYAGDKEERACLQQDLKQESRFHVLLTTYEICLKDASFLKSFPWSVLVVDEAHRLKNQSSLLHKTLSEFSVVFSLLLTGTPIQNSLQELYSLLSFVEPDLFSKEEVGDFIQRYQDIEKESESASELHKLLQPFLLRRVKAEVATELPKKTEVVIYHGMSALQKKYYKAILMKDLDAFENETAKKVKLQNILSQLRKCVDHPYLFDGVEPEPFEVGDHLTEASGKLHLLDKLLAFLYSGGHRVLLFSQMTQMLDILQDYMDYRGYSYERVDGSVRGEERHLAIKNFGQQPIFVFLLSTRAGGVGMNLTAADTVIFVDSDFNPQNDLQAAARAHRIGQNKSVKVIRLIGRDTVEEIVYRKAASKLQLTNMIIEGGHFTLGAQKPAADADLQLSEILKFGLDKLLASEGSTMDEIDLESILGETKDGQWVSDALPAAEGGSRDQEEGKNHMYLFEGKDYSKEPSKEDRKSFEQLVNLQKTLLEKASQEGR
Nature of the experiment: CHD1L ATPase assay with recombinant catalytic domain (cat-CHD1L). It is filed as biochemical. Conditions: for inhibition at 20 µM: confirmed HTS hits, HTS at 20 μM, read-out: inhibition against cat-CHD1L ATPase; for IC50: units given with the values (nM, μM), read-out: activity in dose response studies against cat-CHD1L ATPase (IC50, FIG. 1A). Summed up:
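Recombinant cat-CHD1L (100 nM) was incubated with 200 nM c-Myc DNA or mononucleosome in 50 mM Tris pH 7.5, 50 mM NaCl, 1 mM DTT and 5% glycerol, with 10 μM ATP, for 1 h at 37 °C. Background came from no-enzyme wells, with 1% DMSO and 10 mM EDTA as controls.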

Turning to `COc1ccc(-c2nc(S(=O)(=O)c3ccccc3)c(S(C)(=O)=O)o2)cc1` [Compound 5], the inhibition at 20 µM is > 50% and the IC50 lay in the range of 900 to 5000 nM.

Consider `Cc1cc(Nc2ccc(NC(=O)Cc3cccs3)cc2)nc(N2CCCC2)n1` [Compound 6, N-(4-((6-methyl-2-(pyrrolidin-1-yl)pyrimidin-4-yl)amino)phenyl)-2-(thiophen-2-yl)acetamide], for which the inhibition at 20 µM was > 50% and the IC50 fell in the range of 900 to 5000 nM.

Broadly, the inhibition is how much of the control response was suppressed. A word on the IC50: it is the concentration that inhibits the measured activity by half.
